Measurements as given in article PMC10004267, “Resveratrol, a New Allosteric Effector of Hemoglobin, Enhances Oxygen Supply Efficiency and Improves Adaption to Acute Severe Hypoxia” (Molecules, 2023).

Tests used:
[1] = biological target: T1, hemoglobin of adult (HbA) (Homo sapiens, UniProt P68871); assay: SPR (OpenSPR, HbA immobilized), control compound; type: binding
T1 construct: gene HBB; HbA tetramer purified from human whole blood; with hemoglobin subunit alpha (HBA1)

[2] = biological target: T2, hemoglobin of adult (HbA) (Homo sapiens, UniProt P68871+P69905); assay: SPR (OpenSPR, HbA immobilized on COOH chip, one-to-one model); supported by thermal shift (Tm1) and P50 shift; type: binding
T2 construct: gene HBA1; HbA tetramer purified from human whole blood; with hemoglobin subunit beta (HBB)
T2 sequence (P69905 2-142): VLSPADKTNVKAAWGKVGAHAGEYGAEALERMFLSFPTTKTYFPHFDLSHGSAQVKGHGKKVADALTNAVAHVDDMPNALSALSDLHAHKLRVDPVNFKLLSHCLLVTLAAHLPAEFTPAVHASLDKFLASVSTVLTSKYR
T2 sequence (P68871 2-147): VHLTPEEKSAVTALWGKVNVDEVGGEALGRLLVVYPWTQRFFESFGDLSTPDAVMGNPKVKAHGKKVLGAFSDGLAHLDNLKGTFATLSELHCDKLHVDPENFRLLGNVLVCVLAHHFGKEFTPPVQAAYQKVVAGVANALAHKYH

T1 sequence (P68871 2-147): as above
T1 sequence (P69905 2-142 partner): as the sequence (P69905 2-142) above

Row | Structure (SMILES) | Kd [1] | Kd [2]
1 | O=C(O)C(COP(=O)(O)O)OP(=O)(O)O (centres unmarked) [2,3-DPG, 2,3-Diphosphoglycerate] | 462 µM | 
2 | Oc1ccc(/C=C/c2cc(O)cc(O)c2)cc1 [RSV, 3,4′,5-trihydroxy-trans-stilbene] |  | 48.6 µM
